Paper PMC8002323 (Molecules, 2021)
“And” between values parts separate entries of the source, which are not always exact repeats. Equal entries are not always repeated.

Experiments:
[1] = target: T1, AChE (type VI-S, from electric eel) (Electrophorus electricus, UniProt O42275); experiment: biochemical; type: biochemical; details: for IC50: AChE from Electric eel, mean of two independent experiments ± SD, read-out: AChE Inhib. IC50 ± SD; for AChE inhibition (in words): AChE from electric eel
T1 construct: purchased
Experimental: The acetylcholinesterase inhibitory activity was assessed by an adaptation of the Ellman’s method. The assay solution contained 4-(2-hydroxyethyl)-1-piperazineethanesulfonic acid (HEPES) buffer (50 mM, pH 8.0), 5,5′-dithiobis-(2-nitrobenzoic acid) (DTNB, 3 mM), the stock solution of each compound in methanol (1 mg/mL), AChE (type VI-S, from electric eel) and the required quantity of methanol to reach the desired volume of sample mixture in a 1 mL cuvette. Samples were incubated for 15 min and then 75 μL of acetylthiocholine iodide (AThChI) solution (16 mM) was added. The reaction was monitored for 5 min at 405 nm. Assays were run with a blank containing all the reagents but AChE. Reaction rates were calculated as well as the enzyme activity. A positive control reaction was performed using methanol as a sample solution. The fraction of enzyme inhibition due to the existence of rising concentration of the test compound was calculated using Equation (1), where vi = starting reaction rate in the presence of inhibitor; vo = starting reaction rate of the control reaction. (1) %I =100−100 × […]
The inhibition curves were achieved by plotting the percentage of enzymatic inhibition against inhibitor concentration and a calibration curve was got from which the linear regression parameters were obtained.

[2] = tested on: SH-SY5Y human neuroblastoma cells; experiment: Dose-response screening of cell viability (MTT reduction assay); type: cell-based; details: SH-SY5Y cells treated 25 h, 2.5–50 μM
Experimental: (§1) SH-SY5Y human neuroblastoma cells (ATCC-CRL-2266) (American Type Culture Collection, Manassas, Virgínia, USA) were plated in DMEM/F12 (Dulbecco’s Modified Eagle Medium/Ham’s F-12 Nutrient Mixture; Thermo Fisher Scientific) with 10% heat inactivated fetal bovine serum, 50 U/mL penicillin and 50 U/mL streptomycin under a humidified atmosphere with 95% relative humidity at 37 °C at a 0.16 × 10^6 cells/mL density. Each of the tested substances (6, 7, 8, 9) were dissolved in DMSO to prepare a stock solution at a 25 mM concentration and stored at −20 °C until further use. SH-SY5Y cells were treated for 25 h with varying concentrations of compounds, in order to select the highest non-toxic concentration. The selected concentrations for each compound were: 40 µM final concentration for 6; 15 µM final concentration for 7; 30 µM final concentration for 8 and 2.5 µM final concentration for 9. […] For the neuroprotection assays, the incubation with Aβ1–42 or L-ascorbic acid/ferrous sulphate treatment was preceded with 1 h incubation of the compounds when needed. Pre-incubation was followed by 24 h treatment of Aβ1–42 or Fe/Asc, accounting a total of 25 h. Aβ1–42 was prepared as 276.9 µM stock in sterile water and administrated in the medium at a 2.5 µM final concentration. Ferrous sulphate was freshly prepared as 0.36 M stock in water and added to the medium at 2.5 mM final concentration. L-ascorbic acid was freshly prepared as 80 mM stock in water and added to the medium at 5 mM final concentration. Aβ1–42 was purchased from Bachem (Torrance, CA, USA) and ferrous sulphate and L-ascorbic acid from Sigma Chemical Co. (St. Louis, MO, USA).
Cellular viability was determined by employing the MTT (3-(4,5-dimethylthiazol-2-yl)-2,5-diphenyltetrazolium bromide) reduction assay, according to the Mosmann method. This colorimetric test consists in the ability of the succinate dehydrogenase enzyme from viable cells to metabolize the MTT into a formazan. In the end of treatments, cells medium was aspirated and cells were washed with 1 × PBS (phosphate-buffered saline) to remove dead cells. MTT solution (200 µL, 0.5 mg/mL) was added to each well and incubated for 2 h protected from light. Formazan precipitates were then dissolved in DMSO and absorbance measured at 570 nm. The ability to reduce MTT was expressed as a percentage of untreated, control cells.

[3] = tested on: SH-SY5Y cells; experiment: Neuroprotective effect on Aβ42-induced toxicity (MTT reduction assay); type: cell-based, human; details: Aβ42 2.5 μM 24 h, 1 h pre-incubation; 7 (15 µM), 8 (30 µM), 9 (2.5 µM)
Experimental: as §1
Cellular viability was determined by employing the MTT (3-(4,5-dimethylthiazol-2-yl)-2,5-diphenyltetrazolium bromide) reduction assay, according to the Mosmann method. […] Formazan precipitates were then dissolved in DMSO and absorbance measured at 570 nm. The ability to reduce MTT was expressed as a percentage of untreated, control cells.

[4] = target: T2, Aβ1–42 (Homo sapiens, UniProt P05067); experiment: Inhibition of self-induced Aβ1–42 aggregation (thioflavin-T fluorescence method); details: read-out: Aβ1–42 Aggreg. Inhib.
Experimental: Inhibitory capacity of the compounds for the Aβ1–42 aggregation was assessed based on the fluorescence properties of thioflavine T (ThT), measured with a Varian Cary Eclipse spectrofluorometer.
A previously prepared solution of Aβ1–42 was used.
To the resulting alkaline Aβ1–42 solution was added phosphate buffer (pH 8.0). The compounds tested were diluted in MeOH (1 mg/mL) and then further diluted in phosphate buffer. Two different types of experiments were prepared in a final volume of 60 μL. The solution for the control ligand assay consists in 30 µL of phosphate buffer and 30 µL of Aβ1–42 solution, to evaluate the aggregation without any inhibition, while the solution for the ligand assay consists of 20 µL of phosphate buffer, 30 µL of Aβ1–42 solution and 10 µL of the ligand solution, to evaluate the effect of the ligand in the aggregation. For each experiment a blank sample, without Aβ1–42, is used to monitor the effect of the compounds in the fluorescence. These samples were left incubating in a water bath (CERTOMAT WR), for 24 h, at 37 °C with gentle shaking [14].
A glycine-NaOH buffer (pH 8.5) containing ThT (5 μM) was added to each sample. Samples were placed in a microplate and the fluorescence signal was monitored at 446 nm (λexc) and 490 nm (λem) [40].
(2) %I=100−Fi/F0× 100 where Fi and F0 are the fluorescence intensities in the presence and absence of the compound, respectively, minus the fluorescence intensities of the respective blanks. Statistical analysis was performed in Microsoft Office Excel®.

[5] = target: T2, Aβ1–42; details: self-induced aggregation, literature value for DNP; ref [3],[27]; cited from earlier work

T2 sequence (P05067 672-713 limits assumed): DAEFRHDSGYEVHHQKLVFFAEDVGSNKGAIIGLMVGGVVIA
T1 sequence (O42275 24-633): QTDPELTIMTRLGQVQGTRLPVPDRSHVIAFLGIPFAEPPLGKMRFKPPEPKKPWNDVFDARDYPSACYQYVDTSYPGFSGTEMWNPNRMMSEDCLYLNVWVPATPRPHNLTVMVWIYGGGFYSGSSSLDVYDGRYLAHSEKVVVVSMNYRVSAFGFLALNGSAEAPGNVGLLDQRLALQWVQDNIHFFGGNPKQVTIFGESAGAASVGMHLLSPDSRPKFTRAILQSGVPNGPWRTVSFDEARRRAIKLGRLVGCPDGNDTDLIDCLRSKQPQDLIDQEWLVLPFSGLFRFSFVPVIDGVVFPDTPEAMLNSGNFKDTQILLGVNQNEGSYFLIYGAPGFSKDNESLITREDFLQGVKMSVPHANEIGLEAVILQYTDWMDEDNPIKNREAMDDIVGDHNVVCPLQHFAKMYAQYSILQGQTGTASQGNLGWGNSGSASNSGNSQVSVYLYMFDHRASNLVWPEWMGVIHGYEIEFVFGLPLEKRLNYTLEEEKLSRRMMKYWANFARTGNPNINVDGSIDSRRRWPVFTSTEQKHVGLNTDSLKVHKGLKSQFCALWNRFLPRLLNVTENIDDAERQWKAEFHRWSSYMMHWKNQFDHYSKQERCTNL

Structure (SMILES)	IC50 [1]	highest non-toxic concentration (selected concentration) [2] [µM]	reversal of neurotoxicity induced by Aβ peptides (in words) [3]	inhibition at 40 µM [4] [%]	AChE inhibition (in words) [1]	Aβ1–42 Aggreg. Inhib. [5] [%]
O=S(=O)(NCCN1CCN(Cc2ccccc2)CC1)c1ccc(-c2ccccc2)cc1 [Compound 7, N-(2-(4-benzylpiperazin-1yl)ethyl)-[1,1’-biphenyl]-4-sulfonamide]	38.7 ± 0.2 µM	15	able to relapse the neurotoxicity induced by Aβ peptides	34.6		
COc1ccc(S(=O)(=O)NCC2CCN(Cc3ccccc3)CC2)cc1 [Compound 8, N-((1-benzylpiperidin-4-yl)methyl)-4-methoxybenzenesulfonamide]	1.6 to 6.2 µM and 6.2 µM	30	more modest results in reverting neurotoxicity	64.2		
Nc1c2c(nc3ccccc13)CCCC2 [Tacrine, tacrine, reference compound]				54.5		
Cc1ccc(S(=O)(=O)NCCN2CCN(Cc3ccccc3)CC2)cc1 [Compound 5, N-(2-(4-benzylpiperazin-1-yl)ethyl)-4-methylbenzenesulfonamide]	≥ 100 µM			41.8	do not show significant inhibition	
O=S(=O)(NCC1CCN(Cc2ccccc2)CC1)c1ccc(-c2ccccc2)cc1 [Compound 9, N-((1-benzylpiperidin-4-yl)methyl)-[1,1’-biphenyl]-4-sulfonamide]	1.6 to 6.2 µM and 1.6 µM	2.5	more modest results in reverting neurotoxicity	60.7		
COc1cc2c(cc1OC)C(=O)C(CC1CCN(Cc3ccccc3)CC1)C2 (stereo not drawn) [DNP, donepezil]						<5
COc1ccc(S(=O)(=O)NCCN2CCN(Cc3ccccc3)CC2)cc1 [Compound 6, N-(2-(4-benzylpiperazin-1-yl)ethyl)-4-methoxybenzenesulfonamide]	89 ± 9 µM	40		37.2	do not show significant inhibition	
